Laboratory results as given in US9902986B2, “Enterobactin conjugates and uses thereof” (Massachusetts Institute of Technology, priority 2013, dated 2018).

System: S. aureus ATCC 25923
Test: Antibacterial activity assay, S. aureus
Format: cell-based, Staphylococcus aureus
Conditions: iron limitation (200 μM 2,2′-dipyridyl)
Method: No antibiotic marker was included in these cultures. […] Bacterial growth was determined by measuring OD600 using a BIOTEK SYNERGY HT plate reader. Each well condition was prepared in duplicate, and at least three independent replicates were conducted on different days. The resulting mean OD600 are reported and the error bars are the standard deviation.
Ampicillin and amoxicillin are β-lactam antibiotics that have periplasmic targets in Gram-negative bacteria and inhibit cell wall biosynthesis. The antibacterial activity of Ent-ampicillin and Ent-amoxicillin conjugates 44 and 45 was evaluated in vitro against a panel of Gram-negative and positive-bacteria. FIG. 6 provides exemplary results from antibacterial activity assays against select bacterial species that include non-pathogenic and pathogenic E. coli strains and also Staphylococcus aureus. Under conditions of iron limitation (200 μM 2,2′-dipyridyl), the conjugates provide 100- to 1000-fold improved activity against various E. coli strains, including human pathogens, compared to the unmodified antibiotics.

Row | SMILES | enhancement of activity compared to the unmodified antibiotics
1 | CC1(C)SC2C(NC(=O)C(NC(=O)CCCc3cn(CCOCCOCCOCCNC(=O)c4cc(O)c(O)c(C(=O)NC5COC(=O)C(NC(=O)c6cccc(O)c6O)COC(=O)C(NC(=O)c6cccc(O)c6O)COC5=O)c4)nn3)c3ccccc3)C(=O)N2C1C(=O)O (stereo not drawn) [Ent-Amp] | no enhancement of activity
2 | CC1(C)SC2C(NC(=O)C(NC(=O)CCCc3cn(CCOCCOCCOCCNC(=O)c4cc(O)c(O)c(C(=O)NC5COC(=O)C(NC(=O)c6cccc(O)c6O)COC(=O)C(NC(=O)c6cccc(O)c6O)COC5=O)c4)nn3)c3ccc(O)cc3)C(=O)N2C1C(=O)O (stereo not drawn) [Ent-Amx] | no enhancement of activity
